Measurements from US11530244B2, “Cyclic polypeptides for PCSK9 inhibition” (priority 2018, dated 2022).
Starred links: 1 amine or outer side, 2 acyl side, 3 side chain; linkers in the order of their positions; H or OH if unused. Positions of bridges follow the written chain, without caps; N, C: chain ends. Non-standard residues stand in square brackets, D forms with d. Residues, ends and D or L forms follow the SMILES beside them. Triazole bridges read from a SMILES are 1,4-linked. X38 = NC(=O)[C@H](CSCc1cccc(C[*:1])c1)NC(=O)[C@@H]1CCCC1C(=O)[C@H](Cc1ccc(OCC2CCCCC2)cc1)N[*:2]; Phe(3-CH2NH2) = O=C([C@H](Cc1cccc(CN[*:3])c1)N[*:1])[*:2]; Pro(cis-4-Ph) = O=C(O)[C@@H]1C[C@H](c2ccccc2)CN1; Phe(4-COOH) = N[C@@H](Cc1ccc(C(=O)O)cc1)C(=O)O; Trp(5-F) = N[C@@H](Cc1c[nH]c2ccc(F)cc12)C(=O)O; Trp(6-F) = N[C@@H](Cc1c[nH]c2cc(F)ccc12)C(=O)O; mXylylene(5-F) = Fc1cc(C[*:1])cc(C[*:2])c1; X17 = O=C(CCSCc1ccc(CSCCN[*:1])cc1)[*:2]; X19 = O=C(CCCCc1ccc(CCCCN[*:1])cc1)[*:2]; Lys(N3) = [N-]=[N+]=NCCCC[C@H](N)C(=O)O; Pro(4S-NH2) = N[C@@H]1CN[C@H](C(=O)O)C1; X4 = O=C(CCSCc1cccc(CSCCN[*:1])c1)[*:2]; Orn(N3) = [N-]=[N+]=NCCC[C@H](N)C(=O)O; dGly(cPent) = N[C@@H](C(=O)O)C1CCCC1; mXylylene = c1cc(C[*:1])cc(C[*:2])c1; d(aThr) = C[C@@H](O)[C@@H](N)C(=O)O; Aad = N[C@@H](CCCC(=O)O)C(=O)O; αMeP = C[C@@]1(C(=O)O)CCCN1; Hpra = C#CCC[C@H](N)C(=O)O; dPra = C#CC[C@@H](N)C(=O)O; Orn = NCCC[C@H](N)C(=O)O; dDap = NC[C@@H](N)C(=O)O; Mpa = O=C(O)CCS

What was measured:
[1] = molecular target: human PCSK9 / human LDLR EGFa domain interaction (Homo sapiens (Human), UniProt Q8NBP7); test: TR-FRET assay of inhibition of the PCSK9-LDLR protein-protein interaction; format: binding; conditions: TR-FRET, 20 nM human PCSK9, 20 nM human LDLR EGFa domain, 2 hours room temperature; read-out: IC50
Sequence of human PCSK9 / human LDLR EGFa domain interaction (Q8NBP7 153-692): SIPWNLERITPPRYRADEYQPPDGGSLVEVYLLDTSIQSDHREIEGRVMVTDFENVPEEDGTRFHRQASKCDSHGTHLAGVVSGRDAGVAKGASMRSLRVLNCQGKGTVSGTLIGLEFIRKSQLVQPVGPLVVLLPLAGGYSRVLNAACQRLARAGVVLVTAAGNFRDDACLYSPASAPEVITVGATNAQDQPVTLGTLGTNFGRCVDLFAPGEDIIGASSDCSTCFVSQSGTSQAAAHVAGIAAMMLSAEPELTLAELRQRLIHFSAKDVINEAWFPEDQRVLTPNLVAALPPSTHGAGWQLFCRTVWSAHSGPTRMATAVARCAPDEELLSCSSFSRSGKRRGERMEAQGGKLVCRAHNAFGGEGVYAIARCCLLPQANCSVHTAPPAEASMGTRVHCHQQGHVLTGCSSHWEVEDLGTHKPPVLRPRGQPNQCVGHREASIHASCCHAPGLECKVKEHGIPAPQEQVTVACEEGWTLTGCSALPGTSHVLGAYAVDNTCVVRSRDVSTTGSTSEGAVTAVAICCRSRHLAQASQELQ
Sequence of human PCSK9 / human LDLR EGFa domain interaction (Q8NBP7 31-152 partner): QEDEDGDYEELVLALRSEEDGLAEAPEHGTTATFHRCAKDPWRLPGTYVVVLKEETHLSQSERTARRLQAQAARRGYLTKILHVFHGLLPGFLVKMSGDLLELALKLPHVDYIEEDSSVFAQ
Outline: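 Half-maximal inhibitory concentrations came from 4-parameter fits of dose-response data. Proteins: biotinylated PCSK9, His-tagged LDLR EGFa, 20 nM each; labels 5 nM; 2 h, room temperature; buffer 50 mM HEPES, 150 mM NaCl, 5 mM CaCl2.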

PCSK9 = PCSK9 (Homo sapiens (Human), UniProt Q8NBP7); test: PCSK9 Alexa FRET Standard assay (displacement of AlexaFluor647 tagged cyclic peptide Reagent A); format: binding; conditions: PCSK9 Alexa FRET Standard assay, 0.5 nM PCSK9, 20 nM AF cyclic peptide Reagent A; read-out: IC50
Sequence of PCSK9 (Q8NBP7 153-692): as the sequence (Q8NBP7 153-692) above
Outline: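 TR-FRET displacement: 0.5 nM biotinylated PCSK9 with 1.25 nM Strep-Eu and 20 nM AlexaFluor-tagged cyclic peptide (final) in 50 mM HEPES pH 7.4, 0.15 M NaCl, 5 mM CaCl2, 0.01% BSA, 0.01% P20, ≥2 h at room temperature. IC50 from sigmoidal fit, converted to Ki via peptide KD; falling Eu counts flagged false positives.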

Compound	IC50 [1] [nM]	IC50 (PCSK9) [µM]
CC(=O)N[C@H]1CCCNC(=O)c2ccc(cc2)C[C@@H](C(N)=O)NC(=O)[C@]2(C)CCCN2C(=O)[C@H](Cc2ccc(O)cc2)NC(=O)[C@H](Cc2cnc[nH]2)NC(=O)[C@H](CC(=O)O)NC(=O)[C@H](Cc2c[nH]c3cc(F)ccc23)NC(=O)[C@H](Cc2c[nH]c3ccc(F)cc23)NC(=O)CNC(=O)[C@H](C)NC1=O [Compound 314] (Ac-[Orn]AG[Trp(5-F)][Trp(6-F)]DHY[αMeP][Phe(4-COOH)]-NH2; lactam 1-10)	100 to 1000	1 to 12.1
C[C@H]1NC(=O)[C@H](Cc2cnc[nH]2)NC(=O)[C@H](CC(=O)O)NC(=O)[C@H](Cc2c[nH]c3ccc(F)cc23)NC(=O)[C@H](Cc2c[nH]c3ccc(F)cc23)NC(=O)CNC(=O)[C@H](CCCCN)NC(=O)CCSCc2cccc(c2)CSC[C@@H](C(N)=O)NC(=O)[C@]2(C)CCCN2C1=O [Compound 319] ([Mpa]KG[Trp(5-F)][Trp(5-F)]DH[dA][αMeP]C-NH2; linker 1-10 via mXylylene)	100 to 1000	1 to 12.1
NCCCC[C@@H]1NC(=O)CCSCc2cccc(c2)CSC[C@@H](C(N)=O)NC(=O)[C@@H]2C[C@H](c3ccccc3)CN2C(=O)[C@H](Cc2ccc(O)cc2)NC(=O)[C@H](Cc2cnc[nH]2)NC(=O)[C@H](CC(=O)O)NC(=O)[C@H](Cc2c[nH]c3ccc(F)cc23)NC(=O)[C@H](Cc2c[nH]c3ccc(F)cc23)NC(=O)CNC1=O [Compound 329] ([Mpa]KG[Trp(5-F)][Trp(5-F)]DHY[Pro(cis-4-Ph)]C-NH2; linker 1-10 via mXylylene)	100 to 1000	0.1 to 1
C[C@@H]1NC(=O)CCCCc2ccc(cc2)CCCCNC(=O)C[C@@H](C(=O)N[C@@H](Cc2cnc[nH]2)C(=O)N[C@@H](Cc2ccc(O)cc2)C(=O)N2CCC[C@H]2C(N)=O)NC(=O)[C@H](Cc2c[nH]c3ccc(F)cc23)NC(=O)[C@H](Cc2c[nH]c3ccc(F)cc23)NC(=O)CNC1=O [Compound 330] ([X19]AG[Trp(5-F)][Trp(5-F)]DHYP-NH2; lactam N-6)	100 to 1000	1 to 12.1
CC(=O)N[C@H]1CCCCn2cc(nn2)CC[C@@H](C(N)=O)NC(=O)[C@]2(C)CCCN2C(=O)[C@H](Cc2ccc(O)cc2)NC(=O)[C@H](Cc2cnc[nH]2)NC(=O)[C@H](CC(=O)O)NC(=O)[C@H](Cc2c[nH]c3ccc(F)cc23)NC(=O)[C@H](Cc2c[nH]c3ccc(F)cc23)NC(=O)CNC(=O)[C@H](C)NC1=O [Compound 332] (Ac-[Lys(N3)]AG[Trp(5-F)][Trp(5-F)]DHY[αMeP][Hpra]-NH2; triazole 1-10)	0.1 to 100	0.1 to 1
CC(=O)N[C@H]1CCCn2cc(nn2)CCC[C@@H](C(N)=O)NC(=O)[C@]2(C)CCCN2C(=O)[C@H](Cc2ccc(O)cc2)NC(=O)[C@H](Cc2cnc[nH]2)NC(=O)[C@H](CC(=O)O)NC(=O)[C@H](Cc2c[nH]c3ccc(F)cc23)NC(=O)[C@H](Cc2c[nH]c3ccc(F)cc23)NC(=O)CNC(=O)[C@H](C)NC1=O [Compound 333]	1000 to 12100	1 to 12.1
CC(=O)N[C@H]1Cc2cn(nn2)-c2ccc(cc2)C[C@@H](C(N)=O)NC(=O)[C@]2(C)CCCN2C(=O)[C@H](Cc2ccc(O)cc2)NC(=O)[C@H](Cc2cnc[nH]2)NC(=O)[C@H](CC(=O)O)NC(=O)[C@H](Cc2c[nH]c3ccc(F)cc23)NC(=O)[C@H](Cc2c[nH]c3ccc(F)cc23)NC(=O)CNC(=O)[C@H](C)NC1=O [Compound 334]	21000 to 50000	21 to 50
CC(=O)N[C@@H]1Cc2cn(nn2)CCC[C@@H](C(N)=O)NC(=O)[C@]2(C)CCCN2C(=O)[C@H](Cc2ccc(O)cc2)NC(=O)[C@H](Cc2cnc[nH]2)NC(=O)[C@H](CC(=O)O)NC(=O)[C@H](Cc2c[nH]c3ccc(F)cc23)NC(=O)[C@H](Cc2c[nH]c3ccc(F)cc23)NC(=O)CNC1=O [Compound 335] (Ac-[dPra]G[Trp(5-F)][Trp(5-F)]DHY[αMeP][Orn(N3)]-NH2; triazole 1-9)	1000 to 12100	1 to 12.1
CC(=O)N[C@@H]1Cc2cn(nn2)CCCC[C@@H](C(N)=O)NC(=O)[C@]2(C)CCCN2C(=O)[C@H](Cc2ccc(O)cc2)NC(=O)[C@H](Cc2cnc[nH]2)NC(=O)[C@H](CC(=O)O)NC(=O)[C@H](Cc2c[nH]c3ccc(F)cc23)NC(=O)[C@H](Cc2c[nH]c3ccc(F)cc23)NC(=O)CNC1=O [Compound 336] (Ac-[dPra]G[Trp(5-F)][Trp(5-F)]DHY[αMeP][Lys(N3)]-NH2; triazole 1-9)	0.1 to 100	0.1 to 1
COc1ccc(C[C@@H]2NC(=O)[C@H](Cc3cnc[nH]3)NC(=O)[C@H](CC(=O)O)NC(=O)[C@H](Cc3c[nH]c4ccc(F)cc34)NC(=O)[C@H](Cc3c[nH]c4ccc(F)cc34)NC(=O)[C@@H](C)NC(=O)[C@H](CCCCN)NC(=O)CCSCc3cc(F)cc(c3)CSC[C@@H](C(N)=O)NC(=O)[C@]3(C)CCCN3C2=O)cc1 [Compound 338] ([Mpa]K[dA][Trp(5-F)][Trp(5-F)]DHY(Me)[αMeP]C-NH2; linker 1-10 via mXylylene(5-F))	1000 to 12100	1 to 12.1
CC(=O)N[C@H]1CCc2cn(nn2)CCCC[C@@H](C(N)=O)NC(=O)[C@]2(C)CCCN2C(=O)[C@H](Cc2ccc(O)cc2)NC(=O)[C@H](Cc2cnc[nH]2)NC(=O)[C@H](CC(=O)O)NC(=O)[C@H](Cc2c[nH]c3ccc(F)cc23)NC(=O)[C@H](Cc2c[nH]c3ccc(F)cc23)NC(=O)CNC(=O)[C@H](C)NC1=O [Compound 339] (Ac-[Hpra]AG[Trp(5-F)][Trp(5-F)]DHY[αMeP][Lys(N3)]-NH2; triazole 1-10)	1000 to 12100	1 to 12.1
NCCC[C@@H]1NC(=O)CCSCc2cccc(c2)CSC[C@@H](C(N)=O)NC(=O)[C@@H]2CCCC2C(=O)[C@H](Cc2ccc(OCC3CCCCC3)cc2)NC(=O)[C@H](Cc2cnc[nH]2)NC(=O)[C@H](CC(=O)O)NC(=O)[C@H](Cc2c[nH]c3ccc(F)cc23)NC(=O)[C@H](Cc2c[nH]c3ccc(F)cc23)NC(=O)CNC1=O (stereo partly drawn) [Compound 340] ([Mpa][Orn]G[Trp(5-F)][Trp(5-F)]DH; linker 1-C via X38)	0.1 to 100	0.1 to 1
CC(=O)N[C@H]1CCCc2cn(nn2)CCC[C@@H](C(N)=O)NC(=O)[C@]2(C)CCCN2C(=O)[C@H](Cc2ccc(O)cc2)NC(=O)[C@H](Cc2cnc[nH]2)NC(=O)[C@H](CC(=O)O)NC(=O)[C@H](Cc2c[nH]c3ccc(F)cc23)NC(=O)[C@H](Cc2c[nH]c3ccc(F)cc23)NC(=O)CNC(=O)[C@H](C)NC1=O [Compound 342]	1000 to 12100	1 to 12.1
COc1ccc(C[C@@H]2NC(=O)[C@H](Cc3c[nH]cn3)NC(=O)[C@H](CC(=O)O)NC(=O)[C@H](Cc3c[nH]c4ccc(F)cc34)NC(=O)[C@H](Cc3c[nH]c4ccc(F)cc34)NC(=O)[C@@H](C3CCCC3)NC(=O)[C@H](CCCCN)NC(=O)CCSCc3cccc(c3)CSCCNC(=O)[C@]3(C)CCCN3C2=O)cc1 [Compound 344] (cyclo(DHY(Me)[αMeP][X4]K[dGly(cPent)][Trp(5-F)][Trp(5-F)]))	21000 to 50000	21 to 50
COc1ccc(C[C@@H]2NC(=O)[C@H](CCCC(=O)O)NC(=O)[C@@H]3C[C@H](N)CN3C(=O)[C@H](Cc3c[nH]c4ccc(F)cc34)NC(=O)[C@H](Cc3c[nH]c4ccc(F)cc34)NC(=O)[C@@H](C)NC(=O)[C@H](C)NC(=O)CCSCc3ccc(cc3)CSCCNC(=O)[C@]3(C)CCCN3C2=O)cc1 [Compound 345] (cyclo(A[dA][Trp(5-F)][Trp(5-F)][Pro(4S-NH2)][Aad]Y(Me)[αMeP][X17]))	21000 to 50000	21 to 50
COc1ccc(C[C@@H]2NC(=O)[C@@H]([C@@H](C)O)NC(=O)[C@H](CCCC(=O)O)NC(=O)[C@H](Cc3c[nH]c4ccc(F)cc34)NC(=O)[C@H](Cc3cccc(CN)c3)NC(=O)[C@@H](C)NC(=O)[C@H](C)NC(=O)CCSCc3cccc(c3)CSCCNC(=O)[C@]3(C)CCCN3C2=O)cc1 [Compound 346] (cyclo(A[dA][Phe(3-CH2NH2)][Trp(5-F)][Aad][d(aThr)]Y(Me)[αMeP][X4]))	0.1 to 100	1 to 12.1
COc1ccc(C[C@@H]2NC(=O)[C@H](Cc3cnc[nH]3)NC(=O)[C@H](CC(=O)O)NC(=O)[C@H](Cc3c[nH]c4ccc(F)cc34)NC(=O)[C@H](Cc3c[nH]c4ccc(F)cc34)NC(=O)[C@@H](C)NC(=O)[C@H](CCCCN)NC(=O)[C@@H](NC(C)=O)CCCc3cn(nn3)-c3ccc(cc3)C[C@@H](C(N)=O)NC(=O)[C@]3(C)CCCN3C2=O)cc1 [Compound 353]	21000 to 50000	21 to 50
C[C@@]12CCCN1C(=O)[C@H](Cc1ccc(O)cc1)NC(=O)[C@H](Cc1cnc[nH]1)NC(=O)[C@H](CC(=O)O)NC(=O)[C@H](Cc1c[nH]c3ccc(F)cc13)NC(=O)[C@H](Cc1c[nH]c3ccc(F)cc13)NC(=O)CNC(=O)[C@@H](CN)NC(=O)CCSCc1cccc(c1)CSC[C@@H](C(N)=O)NC2=O [Compound 354] ([Mpa][dDap]G[Trp(5-F)][Trp(5-F)]DHY[αMeP]C-NH2; linker 1-10 via mXylylene)	21000 to 50000	21 to 50
